Reference: patent publication US20100075894A1, “REDUCING ER STRESS IN THE TREATMENT OF OBESITY AND DIABETES” (HARVARD UNIVERSITY, priority 2004, published 2010)
“Also recorded” adds a separate entry of the source.

Assays:
ob/ob mice [1] = experiment: sodium 4-phenylbutyrate and metformin in ob/ob mice: fed blood glucose; type: in vivo, mouse; details: oral gavage daily, 200 mg/kg/day (each), fed state
Protocol: Experiments are performed using the ob/ob genetic model of obesity and insulin resistance (C57B6. V-Lepob/OlaHsd mice were purchased from Harlan Teklad, Madison, Wis.). At seven weeks of age, treatments were started after acclimatization for 5 days by administration of PBS. After this period, PBS, sodium 4-phenylbutyrate (200 mg/kg/day), metformin (200 mg/kg/day), and sodium 4-phenylbutyrate plus metformin (200 mg/kg/day each) were administered into four separate experimental groups of mice (with at least six mice in each group) by oral gavage daily. […] Blood glucose levels were measured at the fed state at 8:00 AM.

ER stress = ER stress markers in animals, western blot after treatment with the compound; type: in vivo; details: for activation of JNK / phosphorylation of IRE-1α / phosphorylation of PERK: animals treated with the compound, western blot; for ER stress: overall statement
From the text: (§1) For example, obesity increases the demand on the synthetic machinery of the cell in many secretory organ systems and is also associated with abnormalities in intracellular energy fluxes and nutrient availability. The present invention stems from the recognition that many of these diseases associated with obesity cause ER stress, particularly in peripheral tissues, and that ER stress is involved in triggering insulin resistance and type 2 diabetes, two sequelae of obesity. […] The agents useful in the treatment of these diseases include small molecules, proteins, nucleic acids, and any other chemical compounds known to reduce or prevent ER stress. These agents make act in any manner that reduces or prevents ER stress such as reducing the production of mutant or misfolded proteins, increasing the expression of ER chaperones, increasing the stability of proteins, boosting the processing capacity of the ER, etc. Particularly useful agents include chemical chaperones such as 4-phenyl butyrate (PBA), tauroursodeoxycholic acid (TUDCA), trimethylamine N-oxide (TMAO), glycerol, D2O, dimethylsufloxide, glycine betaine, methyl amines, and glycerophosphocholine. […] The agents may be administered in any manner known in the drug delivery art although preferably the agent is delivered orally or parenterally. Dose ranges for these agents depend on the agent being delivered as well as other factors but will typically be from 10 mg/kg/day to 10 g/kg/day.

[2] = system: insulin receptor signaling; experiment: insulin receptor signaling in animals after treatment; type: in vivo; details: for serine phosphorylation of Akt / tyrosine phosphorylation of insulin receptor, insulin substrate 1-IRS-1 and IRS-1: animals; for insulin (receptor) signaling: overall statement
From the text: as §1

ob/ob mice [3] = experiment: 4-PBA in ob/ob mice: blood glucose, insulin tolerance test; type: in vivo, mouse; details: for blood glucose levels / insulin sensitivity in vivo: ob/ob mice
Protocol: A genetic (ob/ob) model of mouse obesity was used to analyze the effects of 4-phenyl butyrate (4-PBA) on insulin sensitivity and hyperglycemia. 10-12 weeks old, male, leptin deficient mice were obtained from Jackson Labs, acclimated by three times injection of PBS (3 times a day) for 4 days, and treated either with intraperitoneal injection of 4-PBA (1 g/kg/day in three divided doses) or phosphate buffer saline (PBS) (3 doses of 100 μl) for a period of 7 days. Fed blood glucose levels (mg/dl) at the 3rd and 7th days of trial (a). Insulin Tolerance Test (ITT) were performed on the 7th day after the first injection (b).
A genetic (ob/ob) model of mouse obesity was used to analyze the effects to 4-phenyl butyrate (4-PBA) on insulin sensitivity and hyperglycemia. 8-10 weeks old, male, leptin deficient mice were obtained from Jackson Labs, acclimated by PBS injection (2 times a day) for 4 days, and treated either with 4-PBA (500 mg/kg/day in two divided doses) or phosphate buffer saline (PBS) (2 doses of 200 μl) for a period of 20 days. Body weight during the treatment period (a). Blood glucose levels (mg/dl) after 6 hours of fasting at day 0 and day 20 (b). Insulin (ng/ml) levels at day 0 and day 20 (c). Insulin tolerance tests were performed at the 15th day of the treatment (d).
Animal Studies and Obesity Models: Adult (10-12 weeks of age) male ob/ob mice and their wild type (WT) littermates were purchased from Jackson Labs. Mice used in the diet-induced obesity model were male C57BL/6. All mice were placed on high fat diet (HFD: 35.5% fat, 20% protein, 32.7% carbohydrates, Bio-Serve) immediately after weaning (at ˜3 weeks of age). The XBP-1^+/− and XBP-1^+/+ mice were on Balb/C genetic background. Insulin and glucose tolerance tests were performed as previously described (Hirosumi et al., Nature 420:333 (2002); incorporated herein by reference). Insulin and C-peptide ELISA were performed according to manufacturer's instructions using mouse standards (Crystal Chem. Inc., Downers Grove, Ill.). Pancreas isolated from 16-week-old mice was fixed in Bouin's fluid and formalin, and paraffin sections were double-stained with guinea pig anti-insulin and rabbit anti-glucagon antibodies. Texas red dye conjugated donkey anti-guinea pig IgG and FITC conjugated Goat anti-rabbit IgG were used as secondary antibodies.

JNK = JNK activity in liver tissue of obese mice after PBA; type: in vivo, mouse; details: FIG. 21
ob/ob mice [4] = experiment: TMAO in ob/ob mice: fed blood glucose, serum insulin; type: in vivo, mouse
Protocol: Experiments were performed using the ob/ob genetic model of obesity and insulin resistance (C57BL/6J-Lep-ob mice purchased from Jackson Laboratory, Bar Harbor, Me.). At seven weeks of age, treatments were started after acclimatization for 5 days by administration of PBS. After this period, TMAO (Sigma, T0514) was dissolved in PBS and administered by intraperitoneal (IP) injection every 24 hours at a dose of 1 g/kg/day. At the indicated days, fed blood glucose levels were measured at 8:00 AM using an automated glucometer system. For insulin measurements, blood samples were collected after 6 hours of fasting and serum insulin levels were determined using a specific ELISA (Crystal Chem, 90060). Each treatment group contained at least six animals per experimental group.

Fao liver cells = experiment: ER stress inducers and insulin action in Fao liver cells; type: cell-based, rat; details: Fao cells, FIG. 12A
Protocol: (A) ER stress was induced in Fao liver cells by a 3-hour treatment with 5 μg/ml tunicamycin (Tun). Cells were subsequently stimulated with insulin (Ins). IRS-1 tyrosine and serine (Ser307) phosphorylation, Akt phosphorylation (Ser473), insulin receptor (IR) tyrosine phosphorylation, and their total protein levels were examined using either immunoprecipitation (IP) followed by immunoblotting (IB) or direct immunoblotting. (B) Quantitation of IRS-1 (tyrosine and Ser307), Akt (Ser473), and IR (tyrosine) phosphorylation under the experimental conditions described in (A) with normalization to protein levels for each molecule. (C) Inhibition of ER stress-induced (300 nM thapsigargin for 4 hours) Ser307 phosphorylation of IRS-1 by JNK-1 inhibitor, SP600125 (JNKi, 25 μM), (D) Quantitation of IRS-1 Ser307 phosphorylation under conditions described in (C). (E) Reversal of ER stress-induced inhibition of insulin-stimulated tyrosine phosphorylation (pY) of IRS-1 by a JNK inhibitor. (F) Quantitation of insulin-induced IRS-1 tyrosine phosphorylation levels described in (E). (G) JNK activity, Ser307 phosphorylation of IRS-1, and total IRS-1 levels at indicated times following tunicamycin treatment (Tun, 10 μg/ml for 1 hour) in IRE-1α^+/+ and IRE-1α^−/− fibroblasts. (H) Insulin-stimulated IRS-1 tyrosine phosphorylation and total IRS-1 levels following tunicamycin treatment (Tun, 10 μg/ml for 1 hour) in IRE-1α^+/+ and IRE-1α^−/− fibroblasts. […] All graphs show mean±SEM from at least 2 independent experiments and statistical significance from the controls is indicated by * with p<0.005.
(A) ER stress was induced in Fao cells by 1 hour treatment with 300 nM thapsigargin (Thap), and cells were subsequently stimulated with insulin (Ins). IRS-1 tyrosine phosphorylation (pY) and serine phosphorylation (pSer307), insulin receptor (IR) tyrosine phosphorylation, and total protein levels were examined using either immunoprecipitation (IP) followed by immunoblotting (IB) or direct immunoblotting. (B) Fao cells were treated with sulindac sulfide (SS: 0, 7.5, 30, and 60 μM) for 45 minutes with or without an additional hour of exposure to 300 nM thapsigargin (Thap). IRS-1 serine phosphorylation and total IRS-1 protein levels were examined as described above.
To investigate whether ER stress interferes with insulin action, we pretreated Fao liver cells with tunicamycin and thapsigargin, agents commonly used to induce ER stress. […] IRS-1 is a substrate for insulin receptor tyrosine kinase and serine phosphorylation of IRS-1, particularly mediated by JNK, reduces insulin receptor signaling (Hirosumi et al., Nature 420:333 (2002); incorporated herein by reference).
Cells: Rat Fao liver cells were cultured with RPMI 1640 (Gibco, Grand Island, N.Y.) containing 10% fetal bovine serum (FBS). […]

ob/ob mice [5] = experiment: TUDCA in ob/ob mice: blood glucose, ITT; type: in vivo, mouse
Protocol: 9-10 weeks old ob/ob and their age and sex matched lean controls were used to analyze the effects of TUDCA on glucose metabolism and diabetes. After acclimation with PBS injection (once a day, 200 μl i.p. injection) for 4 days, mice were injected intraperitoneally with TUDCA (500 mg/kg once a day in 200 μl of PBS) (n=6 for lean and n=7 for ob/ob) and PBS (200 μl) (n=6 lean and n=7 for ob/ob). Blood glucose levels on the 4th, 7th, and 10th days after first injection (a). ITT on 10 days after the first injection (b).

[6] = FIG. 7, animals with insulin resistance and type 2 diabetes, 1 g/kg/day IP

Compound | blood glucose (ob/ob mice [1]) | activation of JNK (ER stress) | phosphorylation of IRE-1α (ER stress) | phosphorylation of PERK (ER stress) | ER stress (ER stress) | serine phosphorylation of Akt [2] | tyrosine phosphorylation of insulin receptor, insulin substrate 1-IRS-1 and IRS-1 [2] | insulin (receptor) signaling [2] | glucose levels (ob/ob mice [4]; [6]) | other results
CN(C)C(=N)N=C(N)N [metformin] | did not have any effect on blood glucose | – | – | – | – | – | – | – | – | –
O=C(O)CCCc1ccccc1 [PBA, 4-phenyl butyric acid] | – | reduced | reduced | reduced | regulate ER stress in animals; also recorded: reduce ER stress | increased | increased | regulate insulin receptor signaling | – | blood glucose (ob/ob mice [3]; FIGS. 4 and 5): effective in reducing blood glucose; insulin sensitivity (ob/ob mice [3]; FIGS. 4 and 5): increasing insulin sensitivity; blood glucose levels (ob/ob mice [3]; oral route 500 mg/kg/day in two divided doses, 20 days): lowers blood glucose levels; insulin sensitivity in vivo (ob/ob mice [3]; oral route 500 mg/kg/day, ITT at 15th day): increases insulin sensitivity; blood glucose levels (ob/ob mice [3]; parenteral (intraperitoneal) 1 g/kg/day in three divided doses, 7 days): lowers blood glucose levels; insulin sensitivity in vivo (ob/ob mice [3]; parenteral (intraperitoneal) 1 g/kg/day, ITT on 7th day): increases insulin sensitivity; JNK activity in liver tissue (JNK): normalization of JNK activity
trimethylamine N-oxide [TMAO] | – | – | – | – | reduce ER stress | – | – | – | lowering | anti-diabetic effect (ob/ob mice [4]; FIG. 7, ob/ob mice, 1 g/kg/day IP): act as an anti-diabetic agent in vivo; also recorded: anti-diabetic effect; insulin levels (ob/ob mice [4]; animals with insulin resistance and type 2 diabetes, 1 g/kg/day IP): lowering
C/C=C(/C)C(=O)O[C@H]1C(C)=C2[C@H]([C@@H]1OC(=O)CCCCCCC)[C@@](C)(OC(C)=O)C[C@H](OC(=O)CCC)[C@@]1(O)[C@H]2OC(=O)[C@@]1(C)O [thapsigargin] | – | – | – | – | – | – | – | – | – | insulin receptor signaling (as for tunicamycin) (Fao liver cells): Similar, results were also obtained
C[C@H](CCC(=O)NCCS(=O)(=O)O)[C@H]1CC[C@H]2[C@@H]3[C@@H](O)C[C@@H]4C[C@H](O)CC[C@]4(C)[C@H]3CC[C@]12C [TUDCA, tauroursodeoxycholic acid] | – | reduced | reduced | reduced | regulate ER stress in animals; also recorded: reduce ER stress | increased | increased | regulate insulin receptor signaling | reduce blood glucose levels | diabetes (ob/ob mice [5]; 500 mg/kg once a day i.p.): reverses diabetes; blood glucose levels (ob/ob mice [5]; FIG. 6, 500 mg/kg once a day i.p.): reduce blood glucose levels; insulin sensitivity (ob/ob mice [5]; FIG. 6, 500 mg/kg once a day i.p., 500 mg/kg): increases insulin sensitivity; insulin sensitivity (ob/ob mice [4]; FIG. 7): increase insulin sensitivity
O=C([O-])CCCc1ccccc1.[Na+] [sodium 4-phenylbutyrate] | did not have any effect on blood glucose | – | – | – | – | – | – | – | – | –
